From patent US12421222B2 (AUGUSTINE THERAPEUTICS, priority 2021, dated 2025)
pIC50: −log10 of the molar value.

Test system: acetylated tubulin (Lys40) in HeLa cells
Experiment: Acetylated α-tubulin measurement in vitro (immunocytochemistry)
Assay type: cell-based
Conditions: Homo sapiens, 6 hours incubation, acetylated tubulin (Lys40) by immunocytochemistry, read-out: IC50 (Tubulin deacetylation)
How it was run: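 HeLa cells in serum-free medium treated 6 h at 37 °C (final DMSO 0.1–0.4%), then PFA-fixed and immunostained for acetyl-Lys40 and total α-tubulin; high-content imaging.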

| Structure (SMILES) | pIC50 |
| --- | --- |
| O=C(CSc1nc(C(F)(F)F)nc2ncccc12)c1ccc(CNS(=O)(=O)C2CC2)s1 [Example 122, N-((5-(2-((2-(trifluoromethyl)pyrido[2,3-d]pyrimidin-4-yl)thio)acetyl)thiophen-2-yl)methyl)cyclopropanesulfonamide] | 6.30 to 7.00 |
| O=C(CSc1nc(C(F)(F)F)nc2ncccc12)c1ccc(CNS(=O)(=O)CC(F)(F)F)s1 [Example 123, 2,2,2-trifluoro-N-((5-(2-((2-(trifluoromethyl)pyrido[2,3-d]pyrimidin-4-yl)thio)acetyl)thiophen-2-yl)methyl)ethane-1-sulfonamide] | 6.30 to 7.00 |
| Cc1nc(SCC(=O)c2ccc(CNC(=O)CO)s2)c2cc(F)cnc2n1 [Example 124, N-((5-(2-((6-fluoro-2-methylpyrido[2,3-d]pyrimidin-4-yl)thio)acetyl)thiophen-2-yl)methyl)-2-hydroxyacetamide] | ≥ 7.00 |
| COCCn1ncc2c(SCC(=O)c3ccc(CNC(=O)CO)s3)nc(C(F)(F)F)nc21 [Example 125, 2-hydroxy-N-((5-(2-((1-(2-methoxyethyl)-6-(trifluoromethyl)-1H-pyrazolo[3,4-d]pyrimidin-4-yl)thio)acetyl)thiophen-2-yl)methyl)acetamide] | ≥ 7.00 |
| Cc1nc(SCC(=O)c2ccc(CNC(=O)CO)s2)c2cc(OC(F)(F)F)ccc2n1 [Example 126, 2-hydroxy-N-((5-(2-((2-methyl-6-(trifluoromethoxy)quinazolin-4-yl)thio)acetyl)thiophen-2-yl)methyl)acetamide] | ≥ 7.00 |
| CCS(=O)(=O)NCc1ccc(C(=O)CSc2nc(C(F)(F)F)nc3ncccc23)s1 [Example 127, N-((5-(2-((2-(trifluoromethyl)pyrido[2,3-d]pyrimidin-4-yl)thio)acetyl)thiophen-2-yl)methyl)ethanesulfonamide] | 6.30 to 7.00 |
| COc1ccc2nc(C)nc(SCC(=O)c3ccc([C@H](C)NC(=O)CO)s3)c2c1 [Example 128, (S)-2-hydroxy-N-(1-(5-(2-((6-methoxy-2-methylquinazolin-4-yl)thio)acetyl)thiophen-2-yl)ethyl)acetamide] | 6.30 to 7.00 |
| C[C@H](NC(=O)CO)c1ccc(C(=O)CSc2nc(C(F)(F)F)nc3c2cnn3C)s1 [Example 130, (S)-2-hydroxy-N-(1-(5-(2-((1-methyl-6-(trifluoromethyl)-1H-pyrazolo[3,4-d]pyrimidin-4-yl)thio)acetyl)thiophen-2-yl)ethyl)acetamide] | 6.30 to 7.00 |
| CN(Cc1ccc(C(=O)CSc2nc(C(F)(F)F)nc3ncccc23)s1)C(=O)CO [Example 131, 2-hydroxy-N-methyl-N-((5-(2-((2-(trifluoromethyl)pyrido[2,3-d]pyrimidin-4-yl)thio)acetyl)thiophen-2-yl)methyl)acetamide] | 6.30 to 7.00 |
| COCCn1cc2c(SCC(=O)c3ccc(CNC(=O)CO)s3)nc(C(F)(F)F)nc2n1 [Example 132, 2-hydroxy-N-((5-(2-((2-(2-methoxyethyl)-6-(trifluoromethyl)-2H-pyrazolo[3,4-d]pyrimidin-4-yl)thio)acetyl)thiophen-2-yl)methyl)acetamide] | ≥ 7.00 |
| O=C(CO)NCc1ccc(C(=O)CSc2nc(C(F)(F)F)nc3c2cnn3C2CC2)s1 [Example 133, N-((5-(2-((1-cyclopropyl-6-(trifluoromethyl)-1H-pyrazolo[3,4-d]pyrimidin-4-yl)thio)acetyl)thiophen-2-yl)methyl)-2-hydroxyacetamide] | 6.30 to 7.00 |
| COc1ccc2nc(C(F)(F)F)nc(SCC(=O)c3ccc(CNC(=O)C(C)(C)O)s3)c2c1 [Example 134, 2-hydroxy-N-((5-(2-((6-methoxy-2-(trifluoromethyl)quinazolin-4-yl)thio)acetyl)thiophen-2-yl)methyl)-2-methylpropanamide] | 6.30 to 7.00 |
| CCn1cc2c(SCC(=O)c3ccc(CNC(=O)CO)s3)nc(C(F)(F)F)nc2n1 [Example 135, N-((5-(2-((2-ethyl-6-(trifluoromethyl)-2H-pyrazolo[3,4-d]pyrimidin-4-yl)thio)acetyl)thiophen-2-yl)methyl)-2-hydroxyacetamide] | ≥ 7.00 |
| CCn1ncc2c(SCC(=O)c3ccc(CNC(=O)CO)s3)nc(C(F)(F)F)nc21 [Example 136, N-((5-(2-((1-ethyl-6-(trifluoromethyl)-1H-pyrazolo[3,4-d]pyrimidin-4-yl)thio)acetyl)thiophen-2-yl)methyl)-2-hydroxyacetamide] | 6.30 to 7.00 |
| COc1ccc2nc(C)nc(SCC(=O)c3ccc(CN4CCOCC4=O)s3)c2c1 [Example 137, 4-((5-(2-((6-methoxy-2-methylquinazolin-4-yl)thio)acetyl)thiophen-2-yl)methyl)morpholin-3-one] | 6.30 to 7.00 |
| O=C(CSc1nc(C(F)(F)F)nc2ncccc12)c1ccc(CN2CCOCC2=O)s1 [Example 138, 4-((5-(2-((2-(trifluoromethyl)pyrido[2,3-d]pyrimidin-4-yl)thio)acetyl)thiophen-2-yl)methyl)morpholin-3-one] | 6.30 to 7.00 |
| COc1ccc2nc(C(F)F)nc(SCC(=O)c3ccc(CNC(=O)CO)s3)c2c1 [Example 139, N-((5-(2-((2-(difluoromethyl)-6-methoxyquinazolin-4-yl)thio)acetyl)thiophen-2-yl)methyl)-2-hydroxyacetamide] | 6.30 to 7.00 |

| Structure (SMILES) | pIC50 |
| --- | --- |
| COc1cnc2nc(C)nc(SCC(=O)c3ccc(CNC(=O)CO)s3)c2c1 [Example 140, 2-hydroxy-N-((5-(2-((6-methoxy-2-methylpyrido[2,3-d]pyrimidin-4-yl)thio)acetyl)thiophen-2-yl)methyl)acetamide] | 6.30 to 7.00 |
| COc1ccc2nc(C)nc(SCC(=O)c3ccc(CN4CCC(O)C4=O)s3)c2c1 (stereo not shown) [Example 141, 3-hydroxy-1-((5-(2-((6-methoxy-2-methylquinazolin-4-yl)thio)acetyl)thiophen-2-yl)methyl)pyrrolidin-2-one] | 6.30 to 7.00 |
| Cc1nc(SCC(=O)c2ccc(CNC(=O)CO)s2)c2cc(Cl)cc(F)c2n1 [Example 142, N-((5-(2-((6-chloro-8-fluoro-2-methylquinazolin-4-yl)thio)acetyl)thiophen-2-yl)methyl)-2-hydroxyacetamide] | ≥ 7.00 |
| COc1cccc2nc(C)nc(SCC(=O)c3ccc(CNC(=O)CO)s3)c12 [Example 143, 2-hydroxy-N-((5-(2-((5-methoxy-2-methylquinazolin-4-yl)thio)acetyl)thiophen-2-yl)methyl)acetamide] | 6.30 to 7.00 |
| CCOc1ccc2nc(C)nc(SCC(=O)c3ccc(CNC(=O)CO)s3)c2c1 [Example 144, N-((5-(2-((6-ethoxy-2-methylquinazolin-4-yl)thio)acetyl)thiophen-2-yl)methyl)-2-hydroxyacetamide] | ≥ 7.00 |
| CCOc1cc2c(SCC(=O)c3ccc(CNC(=O)CO)s3)nc(C)nc2cn1 [Example 145, N-((5-(2-((6-ethoxy-2-methylpyrido[3,4-d]pyrimidin-4-yl)thio)acetyl)thiophen-2-yl)methyl)-2-hydroxyacetamide] | ≥ 7.00 |
| Cc1nc(SCC(=O)c2ccc(CNC(=O)CO)s2)c2c(F)c(Cl)ccc2n1 [Example 146, N-((5-(2-((6-chloro-5-fluoro-2-methylquinazolin-4-yl)thio)acetyl)thiophen-2-yl)methyl)-2-hydroxyacetamide] | 6.30 to 7.00 |
| COc1cc(C(F)(F)F)cc2c(SCC(=O)c3ccc(CNC(=O)CO)s3)nc(C)nc12 [Example 148, 2-hydroxy-N-((5-(2-((8-methoxy-2-methyl-6-(trifluoromethyl)quinazolin-4-yl)thio)acetyl)thiophen-2-yl)methyl)acetamide] | ≥ 7.00 |
| Cc1nc(SCC(=O)c2ccc(CNC(=O)CO)s2)c2cc(N(C)C)ncc2n1 [Example 149, N-((5-(2-((6-(dimethylamino)-2-methylpyrido[3,4-d]pyrimidin-4-yl)thio)acetyl)thiophen-2-yl)methyl)-2-hydroxyacetamide] | ≥ 7.00 |
| Cc1nc(SCC(=O)c2ccc(CNC(=O)CO)s2)c2cc(C(F)(F)F)cc(N(C)C)c2n1 [Example 150, N-((5-(2-((8-(dimethylamino)-2-methyl-6-(trifluoromethyl)quinazolin-4-yl)thio)acetyl)thiophen-2-yl)methyl)-2-hydroxyacetamide] | 6.30 to 7.00 |
| CNc1cc(C(F)(F)F)cc2c(SCC(=O)c3ccc(CNC(=O)CO)s3)nc(C)nc12 [Example 151, 2-hydroxy-N-((5-(2-((2-methyl-8-(methylamino)-6-(trifluoromethyl)quinazolin-4-yl)thio)acetyl)thiophen-2-yl)methyl)acetamide] | 5.48 to 6.00 |
| O=C(CO)NCc1ccc(C(=O)CSc2nc(C(F)(F)F)nc3cccnc23)s1 [Example 152, 2-hydroxy-N-((5-(2-((2-(trifluoromethyl)pyrido[3,2-d]pyrimidin-4-yl)thio)acetyl)thiophen-2-yl)methyl)acetamide] | ≥ 7.00 |
| Cc1nc(SCC(=O)c2ccc(CNC(=O)CO)s2)c2ncccc2n1 [Example 153, 2-hydroxy-N-((5-(2-((2-methylpyrido[3,2-d]pyrimidin-4-yl)thio)acetyl)thiophen-2-yl)methyl)acetamide] | ≥ 7.00 |
| COc1cc2c(SCC(=O)c3ccc(CNC(=O)CO)s3)nc(C(F)(F)F)nc2cn1 [Example 154, 2-hydroxy-N-((5-(2-((6-methoxy-2-(trifluoromethyl)pyrido[3,4-d]pyrimidin-4-yl)thio)acetyl)thiophen-2-yl)methyl)acetamide] | ≥ 7.00 |
| O=C(CSc1nc(C(F)(F)F)nc2ncccc12)c1ccc(CN2CCCC2=O)s1 [Example 157, 1-((5-(2-((2-(trifluoromethyl)pyrido[2,3-d]pyrimidin-4-yl)thio)acetyl)thiophen-2-yl)methyl)pyrrolidin-2-one] | ≥ 7.00 |
| COc1ccc2nc(C)nc(SCC(=O)c3ccc(CNC(=O)CO)s3)c2c1F [Example 158, N-((5-(2-((5-fluoro-6-methoxy-2-methylquinazolin-4-yl)thio)acetyl)thiophen-2-yl)methyl)-2-hydroxyacetamide] | 6.30 to 7.00 |
| COc1cc2c(SCC(=O)c3ccc(CN(C)C(=O)CO)s3)nc(C(F)(F)F)nc2cn1 [Example 159, 2-hydroxy-N-((5-(2-((6-methoxy-2-(trifluoromethyl)pyrido[3,4-d]pyrimidin-4-yl)thio)acetyl)thiophen-2-yl)methyl)-N-methylacetamide] | ≥ 7.00 |
